The target of test [1] is PfKRS1 (Plasmodium falciparum, UniProt Q8IDJ8). Nature of the test: Recombinant KRS thermal shift assay, PfKRS1. The test is classed as binding. Details: recombinant PfKRS1 (77–583 and 80–583); 6xHis (N); made in house; host or cells: E. coli Rosetta BL21(DE3), vector pAVA0421. The settings on record: 40 µM inhibitor. The procedure:
2.9 Recombin ant KR S thermal shift assays ( UW)
Recombi nant PfKRS1, CpKRS, and HsKRS were di l u ted to 4 µM in assay buffe r c ontaining 20 mM Tris-HC l pH 8, 200 mM NaC l , 5 mM DTT, 5 mM MgC l2 and l i gands (1 mM lysi ne; 40 µM ATP; and 40 µM inhibitors) in various combinations. Ali quot s (10 µl) were added to a 96-well PCR plate and incubated at ambi ent temperature for 15 mi n. SYPRO® Ora n g e dye (I nv itrog en) was di l uted i n ass ay buffer to a 5x concent rat i on a nd 1 0 µl was added to t he P C R pl at e t o bri ng t he fi nal as s ay v ol ume t o 20 µl. The pl at e w as s eal ed and pul s e cent ri fug ed t o cons ol i dat e t he as s ay mix t ure and remov e ai r bu bbl es .
Us i ng a StepOne Pl us RT-PCR thermal cycler (Ap plied Biosystems) to monitor fluorescence at a n excitation/emission wavelength of 300/470-570 nm, the samples were heated from 25° C to 99° C at a ramp rate of .016° C/sec. Graphpa d® P rism software (GraphPad S oftware, San Diego, CA) was used to determine melting temperatures (Tm) us i ng Bol tzmann s i g moi dal analys is .
Table S3. Thermal shift data for compounds with P fKRS1, Cp KRS a nd Hs KRS.
Com poun d Eff ects o n Lys R S M elti ng Tem pe ratu re ( ∆Tm) […]

For test [2], the system named is C. parvum. Kind of test: In vitro Cryptosporidium time-kill curve assay in HCT-8 cells. The test is classed as cell-based. As to conditions: C. parvum in HCT-8 cell culture. The procedure:
SUPPLEMENTARY INFORMATION ileocecal adenocarcinoma (HCT-8) cel l s (ATC C ) w ere cul t ured i n RP M I 1640 medi um (I nv i t rog en) supplemented with 10% fetal bovine serum (Sigma-Al dri ch), 120 U/ml peni ci l l i n, and 12 0 µg/ml streptomycin (ATCC), and used between passages 9 and 39 for all experiments. Cryptospori di um parvum Iowa isolate oocysts were purchased from Bunch Grass Farm (Deary, ID). Oocys ts were triggered to excyst by treating with 10 mM hydrochloric acid (10 min, 37°C) and the n 2 mM sodium taurocholate (Sigma-Al d r i c h ) i n P B S ( 1 0 m i n , […] ) . They w ere t hen added t o > 95% co nfl uent HC T-8 cel l monol ay ers i n 384-well plates (~5,500 oocysts/well). Ex pe ri me nt al compounds w e re adde d 3 h after i nfecti on, and assay pl ates were incubated for 48 h post-infection at 37°C unde r 5% CO2. Assay pl at es w ere t hen w as hed t h ree t i mes w i t h PBS cont ai ni ng 11 1 mM D-galactose, fixed with 4% parafo rmal dehy de i n PBS, t reat ed f or 10 mi n at 3 7°C w i t h 0. 25% T ri t on X-100, an d s t ai ned w i t h 1. […] […] […] Curves were pl ot t ed and t he hal f-maxi mal effecti ve (EC50) and 90% effecti v e concentrati on (EC90) were cal cul ated us i ng G raphPad Pri s m s oft w are, v ersi on 6. 01. […]
Cryptospori di um parvum elimination during cul ture in HCT-8 cells was measured as recently des cri bed (10). […]

Setting [3] is: read-out: ΔTm PfKRS, ATP + Lysine.
Setting [4] is: read-out: ΔTm PfKRS, no substrate.

Where two headings read alike, the source gives them in different places.

PfKRS1, sequence (Q8IDJ8 77-583): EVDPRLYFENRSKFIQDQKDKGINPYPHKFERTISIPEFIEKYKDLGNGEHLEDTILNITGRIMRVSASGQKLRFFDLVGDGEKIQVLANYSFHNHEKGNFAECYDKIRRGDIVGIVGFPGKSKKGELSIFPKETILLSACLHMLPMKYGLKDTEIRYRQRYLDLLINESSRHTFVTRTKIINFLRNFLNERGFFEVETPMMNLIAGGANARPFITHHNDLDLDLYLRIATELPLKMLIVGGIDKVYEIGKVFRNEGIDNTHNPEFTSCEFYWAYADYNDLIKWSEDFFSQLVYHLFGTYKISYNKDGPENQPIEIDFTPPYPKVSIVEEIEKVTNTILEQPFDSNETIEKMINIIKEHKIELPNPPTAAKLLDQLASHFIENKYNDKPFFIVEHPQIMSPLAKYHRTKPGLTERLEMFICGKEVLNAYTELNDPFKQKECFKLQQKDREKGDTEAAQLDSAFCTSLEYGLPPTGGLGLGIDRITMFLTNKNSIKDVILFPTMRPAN

For `O=C(NCC1CCCCC1)c1cc(=O)c2cc(F)ccc2o1` [Compound 3], the ΔTm (in general, the shift of the melting midpoint relative to a reference) at 40 µM came out at 2.4 °C in test [1] (setting [3]); 0.2 °C in test [1] (read-out: ΔTm PfKRS, ATP); 5.3 °C in test [1] (read-out: ΔTm PfKRS, Lysine); 0.5 °C in test [1] (setting [4]).

Take `C[C@H]1CCC[C@H](C[C@H]2Cc3cc(O)cc(O)c3C(=O)O2)O1` [Compound 1, cladosporin, reference compound]: the “time-kill curve, parasite elimination” value in test [2] is “eliminated parasites at an exponential rate”. Also, the thermal shift (ΔTm) at 40 µM was found to be 7.2 °C in test [1] (ATP + Lysine, read-out: ΔTm PfKRS); 3.5 °C in test [1] (ATP, read-out: ΔTm PfKRS); 9.3 °C in test [1] (Lysine, read-out: ΔTm PfKRS); 3.4 °C in test [1] (no substrate, read-out: ΔTm PfKRS).

Take `O=C(NCC1CCCCC1)c1cc(=O)c2ccccc2o1` [Compound 2]: the ΔTm at 40 µM in test [1] (setting [3]) is 5.1 °C; in test [1] (read-out: ΔTm PfKRS, ATP), 0.9 °C; in test [1] (read-out: ΔTm PfKRS, Lysine), 7.4 °C; in test [1] (setting [4]), 1.2 °C.

Consider `O=C(NCC1(O)CCC(F)(F)CC1)c1cc(=O)c2cc(F)ccc2o1` [Compound 5], for which the “time-kill curve, parasite elimination” value in test [2] is given as “eliminated parasites at an exponential rate”. For the same compound, the ΔTm at 40 µM in test [1] (setting [3]) was determined as 5.3 °C; in test [1] (read-out: ΔTm PfKRS, ATP), 0.9 °C; in test [1] (read-out: ΔTm PfKRS, Lysine) it was 7.5 °C; in test [1] (setting [4]) it was 1.3 °C.

In the case of `O=C(NCC1(O)CCCCC1)c1cc(=O)c2cc(F)ccc2o1` [Compound 4], the ΔTm at 40 µM was found to be 5.1 °C in test [1] (setting [3]); 0.5 °C in test [1] (read-out: ΔTm PfKRS, ATP); 7.5 °C in test [1] (read-out: ΔTm PfKRS, Lysine); 0.9 °C in test [1] (setting [4]).
